{
  "source": "patent US12414969B2",
  "about": "“Methods and compositions for reducing clostridium difficile infection” (priority 2014, dated 2025)",
  "test_system": "C. difficile",
  "assay": "Addition of secondary bile acids to culture media, C. difficile growth",
  "settings": "bile acid added to culture media",
  "data": [
    {"molecule": "C[C@H](CCC(=O)O)[C@H]1CC[C@H]2[C@@H]3CC[C@@H]4C[C@H](O)CC[C@]4(C)[C@H]3C[C@H](O)[C@]12C", "note": "[DCA, deoxycholic acid]", "values": [
      {"measurement": "C. difficile growth inhibition in culture media", "result": "inhibits c. difficile growth"}
    ]}
  ]
}
